Measurements published in patent US20250311727A1, “SUBSTITUTED 2-AMINOAZINES AND SALTS THEREOF, AND USE THEREOF AS HERBICIDAL ACTIVE SUBSTANCES” (BAYER AKTIENGESELLSCHAFT, priority 2022, published 2025).

What was measured:
Type in all cases: in vivo
Digitaria sanguinalis [1] = experiment: Post-emergence herbicidal efficacy at 320 g/ha, DIGSA; conditions: rated visually after about 3 weeks vs untreated controls, 100% = plants have died
Method in brief: (§1)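 Weeds grown in sandy loam in a greenhouse, both monocot and dicot species, and sprayed post-emergence at the one-leaf stage, 2–3 weeks after sowing. Spray was a WP or EC formulation with 0.5% additive in 600 L/ha water. Efficacy rated visually after about 3 weeks against untreated controls (0% = like control, 100% = plants dead).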

Poa annua [2] = experiment: Pre-emergence herbicide efficacy at 320 g/ha, POAAN; conditions: scored visually after about 3 weeks vs untreated controls, 100% = plants have died
Method in brief: (§2)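 Visual percent activity versus untreated controls, read about 3 weeks after treatment, where 100% means dead plants and 0% means control-like growth. Compound (WP or EC, 0.5% additive, 600 L/ha water) was sprayed onto the covering soil over freshly sown weed seeds in sandy loam, then kept in a greenhouse.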

Echinochloa crus-galli [3] = experiment: Pre-emergence herbicide efficacy at 320 g/ha, ECHCG; conditions: scored visually after about 3 weeks vs untreated controls, 100% = plants have died
Method in brief: as §2

Kochia scoparia [4] = experiment: Pre-emergence herbicide efficacy at 320 g/ha, KCHSC; conditions: scored visually after about 3 weeks vs untreated controls, 100% = plants have died
Method in brief: as §2

Alopecurus myosuroides [5] = experiment: Post-emergence herbicidal efficacy at 320 g/ha, ALOMY; conditions: rated visually after about 3 weeks vs untreated controls, 100% = plants have died
Description: (§3) Unwanted plants/weeds: • ABUTH: Abutilon theophrasti • ALOMY: Alopecurus myosuroides • AMARE: Amaranthus retroflexus • DIGSA: Digitaria sanguinalis • ECHCG: Echinochloa crus-galli • KCHSC: Kochia scoparia • LOLRI: Lolium rigidum • MATIN: Matricaria inodora • POAAN: Poa annua • POLCO: Polygonum convolvulus • SETVI: Setaria viridis • STEME: Stellaria media • VERPE: Veronica persica • VIOTR: Viola tricolor A. Post-Emergence Herbicidal Efficacy at 320 g/ha
Seeds of mono- and dicotyledonous weed plants were placed in plastic pots in sandy loam soil (doubly sown with in each case one species of mono- or dicotyledonous weed plants per pot), covered with soil and cultivated in a greenhouse under controlled growth conditions. 2 to 3 weeks after sowing, the test plants were treated at the one-leaf stage. The compounds of the invention, formulated in the form of wettable powders (WP) or as emulsion concentrates (EC), were applied to the green parts of the plants as aqueous suspension or emulsion with addition of 0.5% additive at a water application rate equivalent to 600 litres per hectare. After the test plants had been kept in the greenhouse under optimum growth conditions for about 3 weeks, the activity of the preparations was rated visually in comparison to untreated controls.
(§4) For example, 100% activity=the plants have died, 0% activity=like control plants.
Tables A1 to A10 below show the effects of selected compounds of the general formula (I) according to Table 1 on various harmful plants and at an application rate corresponding to 320 g/ha, which were obtained by the trial procedure specified above.

Echinochloa crus-galli [6] = experiment: Pre-emergence herbicide efficacy at 80 g/ha, ECHCG; conditions: scored visually after about 3 weeks vs untreated controls, 100% = plants have died
Description: as §3
(§5) Seeds of monocotyledonous and dicotyledonous weed plants and crop plants were placed in plastic or organic planting pots and covered with soil. The compounds of the invention, formulated in the form of wettable powders (WP) or as emulsion concentrates (EC), were then applied to the surface of the covering soil as aqueous suspension or emulsion with addition of 0.5% additive at a water application rate equivalent to 600 l/ha. After the treatment, the pots were placed in a greenhouse and kept under good growth conditions for the test plants. After about 3 weeks, the efficacy of the preparations was scored visually in comparison with untreated controls as percentages. For example, 100% activity=the plants have died, 0% activity=like control plants.
(§6) Tables D1 to D12 below show the effects of selected compounds of the general formula (I) according to Table 1 on various harmful plants and an application rate corresponding to 80 g/ha, which were obtained by the experimental procedure mentioned above.

Kochia scoparia [7] = experiment: Post-emergence herbicidal efficacy at 320 g/ha, KCHSC; conditions: rated visually after about 3 weeks vs untreated controls, 100% = plants have died
Method in brief: as §1

Stellaria media [8] = experiment: Post-emergence herbicidal efficacy at 320 g/ha, STEME; conditions: rated visually after about 3 weeks vs untreated controls, 100% = plants have died
Method in brief: as §1

Digitaria sanguinalis [9] = experiment: Pre-emergence herbicide efficacy at 80 g/ha, DIGSA; conditions: scored visually after about 3 weeks vs untreated controls, 100% = plants have died
Method in brief: (§7)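 Pre-emergence soil-surface spray over freshly sown, soil-covered seeds; WP/EC formulation, 0.5% additive, 600 l/ha water volume. Greenhouse, ~3 wk. Readout: visual % efficacy vs untreated (0% = control-like, 100% = dead).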

Abutilon theophrasti [10] = experiment: Pre-emergence herbicide efficacy at 320 g/ha, ABUTH; conditions: scored visually after about 3 weeks vs untreated controls, 100% = plants have died
Method in brief: as §2

Amaranthus retroflexus [11] = experiment: Pre-emergence herbicide efficacy at 80 g/ha, AMARE; conditions: scored visually after about 3 weeks vs untreated controls, 100% = plants have died
Method in brief: as §7

Setaria viridis [12] = experiment: Post-emergence herbicidal efficacy at 320 g/ha, SETVI; conditions: rated visually after about 3 weeks vs untreated controls, 100% = plants have died
Method in brief: as §1

Stellaria media [13] = experiment: Pre-emergence herbicide efficacy at 320 g/ha, STEME; conditions: scored visually after about 3 weeks vs untreated controls, 100% = plants have died
Method in brief: as §2

Abutilon theophrasti [14] = experiment: Pre-emergence herbicide efficacy at 80 g/ha, ABUTH; conditions: scored visually after about 3 weeks vs untreated controls, 100% = plants have died
Description: as §3, §5, §6

Setaria viridis [15] = experiment: Pre-emergence herbicide efficacy at 320 g/ha, SETVI; conditions: scored visually after about 3 weeks vs untreated controls, 100% = plants have died
Method in brief: as §2

Echinochloa crus-galli [16] = experiment: Post-emergence herbicidal efficacy at 320 g/ha, ECHCG; conditions: rated visually after about 3 weeks vs untreated controls, 100% = plants have died
Method in brief: as §1

Matricaria inodora = experiment: Pre-emergence herbicide efficacy at 320 g/ha, MATIN; conditions: scored visually after about 3 weeks vs untreated controls, 100% = plants have died
Method in brief: as §2

Amaranthus retroflexus [17] = experiment: Pre-emergence herbicide efficacy at 320 g/ha, AMARE; conditions: scored visually after about 3 weeks vs untreated controls, 100% = plants have died
Method in brief: as §2

Veronica persica [18] = experiment: Pre-emergence herbicide efficacy at 320 g/ha, VERPE; conditions: scored visually after about 3 weeks vs untreated controls, 100% = plants have died
Method in brief: as §2

Viola tricolor [19] = experiment: Pre-emergence herbicide efficacy at 80 g/ha, VIOTR
Method in brief: as §7

Alopecurus myosuroides [20] = experiment: Pre-emergence herbicide efficacy at 320 g/ha, ALOMY; conditions: scored visually after about 3 weeks vs untreated controls, 100% = plants have died
Description: as §3
Seeds of mono- and dicotyledonous weed plants were placed in plastic pots in sandy loam soil (doubly sown with one species each of mono- or dicotyledonous weed plants per pot) and covered with soil. The compounds of the invention, formulated in the form of wettable powders (WP) or as emulsion concentrates (EC), were then applied to the surface of the covering soil as aqueous suspension or emulsion with addition of 0.5% additive at a water application rate of 600 litres per hectare (converted). After the treatment, the pots were placed in a greenhouse and kept under good growth conditions for the test plants. After about 3 weeks, the efficacy of the preparations was scored visually in comparison with untreated controls as percentages.
as §4
Tables C1 to C12 below show the effects of selected compounds of the general formula (I) according to Table 1 on various harmful plants and at an application rate corresponding to 320 g/ha, which were obtained by the trial procedure specified above.

Poa annua [21] = experiment: Post-emergence herbicidal efficacy at 320 g/ha, POAAN; conditions: rated visually after about 3 weeks vs untreated controls, 100% = plants have died
Method in brief: as §1

Amaranthus retroflexus [22] = experiment: Post-emergence herbicidal efficacy at 320 g/ha, AMARE; conditions: rated visually after about 3 weeks vs untreated controls, 100% = plants have died
Method in brief: as §1

Veronica persica [23] = experiment: Post-emergence herbicidal efficacy at 80 g/ha, VERPE; conditions: rated visually after about 3 weeks vs untreated controls, 100% = plants have died
Method in brief: (§8)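 Visual damage ratings, 0% (like untreated controls) to 100% (plants dead), were taken about 3 weeks after treatment. Plants were sprayed at the one-leaf stage with WP- or EC-formulated compound in water containing 0.5% additive, 600 l/ha, having been raised in sandy loam in the greenhouse.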

Polygonum convolvulus = experiment: Pre-emergence herbicide efficacy at 80 g/ha, POLCO; conditions: scored visually after about 3 weeks vs untreated controls, 100% = plants have died
Method in brief: as §7

Amaranthus retroflexus [24] = experiment: Post-emergence herbicidal efficacy at 80 g/ha, AMARE; conditions: rated visually after about 3 weeks vs untreated controls, 100% = plants have died
Method in brief: as §8

Veronica persica [25] = experiment: Pre-emergence herbicide efficacy at 80 g/ha, VERPE
Method in brief: as §7

Digitaria sanguinalis [26] = experiment: Pre-emergence herbicide efficacy at 320 g/ha, DIGSA; conditions: scored visually after about 3 weeks vs untreated controls, 100% = plants have died
Method in brief: as §2

Alopecurus myosuroides [27] = experiment: Pre-emergence herbicide efficacy at 80 g/ha, ALOMY; conditions: scored visually after about 3 weeks vs untreated controls, 100% = plants have died
Description: as §3, §5, §6

Veronica persica [28] = experiment: Post-emergence herbicidal efficacy at 320 g/ha, VERPE; conditions: rated visually after about 3 weeks vs untreated controls, 100% = plants have died
Method in brief: as §1

Viola tricolor [29] = experiment: Post-emergence herbicidal efficacy at 80 g/ha, VIOTR; conditions: rated visually after about 3 weeks vs untreated controls, 100% = plants have died
Method in brief: as §8

Digitaria sanguinalis [30] = experiment: Post-emergence herbicidal efficacy at 80 g/ha, DIGSA; conditions: rated visually after about 3 weeks vs untreated controls, 100% = plants have died
Description: as §3
(§9) Seeds of monocotyledonous and dicotyledonous weeds and crop plants were placed in sandy loam in plastic or organic planting pots, covered with soil and cultivated in a greenhouse under controlled growth conditions. 2 to 3 weeks after sowing, the test plants were treated at the one-leaf stage. The compounds of the invention, formulated in the form of wettable powders (WP) or as emulsion concentrates (EC), were then sprayed onto the green parts of the plants as aqueous suspension or emulsion with addition of 0.5% additive at a water application rate of 600 l/ha (converted). After the test plants had been kept in the greenhouse under optimum growth conditions for about 3 weeks, the activity of the preparations was rated visually in comparison to untreated controls. For example, 100% activity=the plants have died, 0% activity=like control plants.
(§10) Tables B1 to B11 below show the effects of selected compounds of the general formula (I) according to Table 1 on various harmful plants and an application rate corresponding to 80 g/ha, which were obtained by the experimental procedure mentioned above.

Alopecurus myosuroides [31] = experiment: Post-emergence herbicidal efficacy at 80 g/ha, ALOMY; conditions: rated visually after about 3 weeks vs untreated controls, 100% = plants have died
Description: as §3, §9, §10

Setaria viridis [32] = experiment: Pre-emergence herbicide efficacy at 80 g/ha, SETVI
Method in brief: as §7

Fc1cnc(Nc2cccc(F)c2-c2cc(C(F)F)no2)nc1 [Example 1-34]
90%: Pre-emergence efficacy at 80 g/ha against ECHCG in % (Echinochloa crus-galli [6]) | Post-emergence efficacy at 320 g/ha against SETVI in % (Setaria viridis [12]) | Pre-emergence efficacy at 80 g/ha against ABUTH in % (Abutilon theophrasti [14]) | Pre-emergence efficacy at 80 g/ha against POLCO in % (Polygonum convolvulus) | Pre-emergence efficacy at 80 g/ha against ALOMY in % (Alopecurus myosuroides [27])
100%: Post-emergence efficacy at 320 g/ha against DIGSA in % (Digitaria sanguinalis [1]) | Pre-emergence efficacy at 320 g/ha against POAAN in % (Poa annua [2]) | Pre-emergence efficacy at 320 g/ha against ECHCG in % (Echinochloa crus-galli [3]) | Pre-emergence efficacy at 320 g/ha against KCHSC in % (Kochia scoparia [4]) | Post-emergence efficacy at 320 g/ha against ALOMY in % (Alopecurus myosuroides [5]) | Post-emergence efficacy at 320 g/ha against KCHSC in % (Kochia scoparia [7]) | Post-emergence efficacy at 320 g/ha against STEME in % (Stellaria media [8]) | Pre-emergence efficacy at 80 g/ha against DIGSA in % (Digitaria sanguinalis [9]) | Pre-emergence efficacy at 320 g/ha against ABUTH in % (Abutilon theophrasti [10]) | Pre-emergence efficacy at 80 g/ha against AMARE in % (Amaranthus retroflexus [11]) | Pre-emergence efficacy at 320 g/ha against STEME in % (Stellaria media [13]) | Pre-emergence efficacy at 320 g/ha against SETVI in % (Setaria viridis [15]) | Post-emergence efficacy at 320 g/ha against ECHCG in % (Echinochloa crus-galli [16]) | Pre-emergence efficacy at 320 g/ha against MATIN in % (Matricaria inodora) | Pre-emergence efficacy at 320 g/ha against AMARE in % (Amaranthus retroflexus [17]) | Pre-emergence efficacy at 320 g/ha against VERPE in % (Veronica persica [18]) | Pre-emergence efficacy against VIOTR (Viola tricolor [19]) | Pre-emergence efficacy at 320 g/ha against ALOMY in % (Alopecurus myosuroides [20]) | Post-emergence efficacy at 320 g/ha against POAAN in % (Poa annua [21]) | Post-emergence efficacy at 320 g/ha against AMARE in % (Amaranthus retroflexus [22]) | Post-emergence efficacy at 80 g/ha against VERPE in % (Veronica persica [23]) | Post-emergence efficacy at 80 g/ha against AMARE in % (Amaranthus retroflexus [24]) | Pre-emergence efficacy against VERPE (Veronica persica [25]) | Pre-emergence efficacy at 320 g/ha against DIGSA in % (Digitaria sanguinalis [26]) | Post-emergence efficacy at 320 g/ha against VERPE in % (Veronica persica [28]) | Post-emergence efficacy at 80 g/ha against ALOMY in % (Alopecurus myosuroides [31]) | Pre-emergence efficacy against SETVI (Setaria viridis [32])
80%: Post-emergence efficacy at 80 g/ha against VIOTR in % (Viola tricolor [29]) | Post-emergence efficacy at 80 g/ha against DIGSA in % (Digitaria sanguinalis [30])
